Test results from the CheMixHub ionic liquid set.

Assay: xn = mol fraction of the nth substance listed
Details: for viscosity: 100 kPa; for electrical conductivity: 101 kPa

OC[C@@H](O)[C@@H](O)[C@H](O)[C@@H](O)CO + CCCCCCCCCCCCCCCC[N+](C)(C)C.[Br-] + O
viscosity [mPa·s]
Details	298.15 K	308.15 K	318.15 K
x1 = 0.0007313, x2 = 1.441e-05	0.921	0.762	–
x1 = 0.0008985, x2 = 7.2e-06	0.923	–	0.634
x1 = 0.001226, x2 = 1.44e-05	–	0.774	–
x1 = 0.001311, x2 = 2.16e-05	0.942	0.779	0.644
x1 = 0.001618, x2 = 1.439e-05	0.949	–	0.649
x1 = 0.001661, x2 = 2.159e-05	0.954	0.788	0.651
x1 = 0.001736, x2 = 7.2e-06	0.949	–	0.651
x1 = 0.001867, x2 = 7.19e-06	–	0.788	0.654
x1 = 0.001983, x2 = 2.158e-05	0.964	–	0.658
x1 = 0.00199, x2 = 1.439e-05	0.96	0.793	0.657
x1 = 0.00225, x2 = 2.157e-05	0.973	0.803	0.664
x1 = 0.002345, x2 = 7.19e-06	0.968	0.799	0.663
x1 = 0.002374, x2 = 1.438e-05	0.972	0.803	0.665
x1 = 0.002657, x2 = 1.438e-05	0.981	0.81	0.67
x1 = 0.002734, x2 = 7.19e-06	0.98	0.809	0.671
x1 = 0.002734, x2 = 2.156e-05	0.989	0.816	0.674

CC(=O)[O-].CCCCC[N+](CCCCC)(CCCCC)CCCCC + CCCCCCCCCCCCOS(=O)(=O)[O-].[Na+] + O
viscosity [mPa·s]
Details	x2 = 1.81e-06, x1 = 0.0001802	x2 = 3.62e-06, x1 = 0.0001802	x2 = 5.42e-06, x1 = 0.0001802	x2 = 7.23e-06, x1 = 0.0001802	x2 = 9.04e-06, x1 = 0.0001802	x2 = 1.085e-05, x1 = 0.0001802	x2 = 1.266e-05, x1 = 0.0001802	x2 = 1.446e-05, x1 = 0.0001802	x2 = 1.627e-05, x1 = 0.0001802	x2 = 1.808e-05, x1 = 0.0001802
293.15 K	1.002	1.003	1.005	1.005	1.007	1.007	1.007	1.007	1.007	1.008
298.15 K	0.89	0.893	0.894	0.896	0.898	0.9	0.902	0.902	0.904	0.904
303.15 K	0.784	0.786	0.789	0.792	0.793	0.796	0.796	0.796	0.798	0.796
308.15 K	0.701	0.703	0.704	0.706	0.707	0.707	0.708	0.708	0.709	0.709
313.15 K	0.636	0.638	0.641	0.643	0.645	0.646	0.646	0.647	0.648	0.648
318.15 K	0.587	0.587	0.589	0.59	0.591	0.593	0.593	0.597	0.598	0.599

CC(=O)[O-].CCCCC[N+](CCCCC)(CCCCC)CCCCC + CCCCCCCCCCCC[N+](C)(C)C.[Br-] + O
viscosity [mPa·s]
Details	x2 = 5.424e-05, x1 = 0.0001802	x2 = 0.0001085, x1 = 0.0001801	x2 = 0.0001627, x1 = 0.0001801	x2 = 0.0002169, x1 = 0.0001801	x2 = 0.0002711, x1 = 0.0001801	x2 = 0.0003254, x1 = 0.0001801	x2 = 0.0003796, x1 = 0.0001801	x2 = 0.0004338, x1 = 0.0001801	x2 = 0.000488, x1 = 0.0001801	x2 = 0.0005421, x1 = 0.0001801
293.15 K	1.029	1.031	1.033	1.034	1.034	1.035	1.035	1.036	1.036	1.036
298.15 K	0.921	0.924	0.928	0.928	0.929	0.929	0.93	0.93	0.931	0.931
303.15 K	0.811	0.813	0.816	0.819	0.822	0.825	0.825	0.828	0.829	0.83
308.15 K	0.728	0.731	0.731	0.733	0.734	0.737	0.741	0.745	0.746	0.749
313.15 K	0.659	0.661	0.664	0.666	0.667	0.669	0.669	0.67	0.671	0.671
318.15 K	0.609	0.609	0.611	0.612	0.613	0.615	0.615	0.619	0.62	0.621

O=P([O-])(O)O.[Na+] + CCCCCCCCCCCC[N+](C)(C)C.[Br-] + O
298.15 K
Details	electrical conductivity [S/m]
x2 = 0, x1 = 0.0001802	0.1015
x2 = 0, x1 = 0.001799	0.7566
x2 = 3.79e-06, x1 = 0.0001802	0.1031
x2 = 5.64e-06, x1 = 0.001799	0.7559
x2 = 7.76e-06, x1 = 0.0001802	0.1049
x2 = 1.11e-05, x1 = 0.001799	0.7567
x2 = 1.317e-05, x1 = 0.0001802	0.1075
x2 = 1.858e-05, x1 = 0.0001802	0.1101
x2 = 1.893e-05, x1 = 0.001799	0.7581
x2 = 2.345e-05, x1 = 0.0001802	0.1124
x2 = 2.603e-05, x1 = 0.001799	0.7597
x2 = 3.427e-05, x1 = 0.0001802	0.1175
x2 = 3.55e-05, x1 = 0.001799	0.7617
x2 = 4.401e-05, x1 = 0.0001802	0.1222
x2 = 4.714e-05, x1 = 0.001799	0.7635
x2 = 5.411e-05, x1 = 0.0001802	0.127
x2 = 5.843e-05, x1 = 0.001799	0.766
x2 = 6.457e-05, x1 = 0.0001802	0.132
x2 = 6.953e-05, x1 = 0.001799	0.7685
x2 = 7.467e-05, x1 = 0.0001801	0.1368
x2 = 8.082e-05, x1 = 0.001799	0.771
x2 = 8.477e-05, x1 = 0.0001801	0.1416
x2 = 9.228e-05, x1 = 0.001799	0.7738
x2 = 9.541e-05, x1 = 0.0001801	0.1467
x2 = 0.0001034, x1 = 0.001799	0.777
x2 = 0.0001055, x1 = 0.0001801	0.1516
x2 = 0.0001145, x1 = 0.001799	0.7803
x2 = 0.0001154, x1 = 0.0001801	0.1563
x2 = 0.0001255, x1 = 0.0001801	0.161
x2 = 0.0001258, x1 = 0.001799	0.7836
x2 = 0.0001363, x1 = 0.001799	0.7867
x2 = 0.0001371, x1 = 0.0001801	0.1667
x2 = 0.0001469, x1 = 0.001798	0.7899
x2 = 0.0001488, x1 = 0.0001801	0.1723
x2 = 0.0001578, x1 = 0.001798	0.793
x2 = 0.0001602, x1 = 0.0001801	0.1777
x2 = 0.0001687, x1 = 0.001798	0.7962
x2 = 0.0001715, x1 = 0.0001801	0.1831
x2 = 0.0001796, x1 = 0.001798	0.7996
x2 = 0.0001829, x1 = 0.0001801	0.1884
x2 = 0.0001905, x1 = 0.001798	0.8028
x2 = 0.0001941, x1 = 0.0001801	0.1937
x2 = 0.0002011, x1 = 0.001798	0.8057
x2 = 0.0002054, x1 = 0.0001801	0.1991
x2 = 0.0002117, x1 = 0.001798	0.8081
x2 = 0.0002166, x1 = 0.0001801	0.2043
x2 = 0.0002224, x1 = 0.001798	0.8103
x2 = 0.0002276, x1 = 0.0001801	0.2096
x2 = 0.0002326, x1 = 0.001798	0.8125
x2 = 0.0002384, x1 = 0.0001801	0.2146
x2 = 0.0002431, x1 = 0.001798	0.8147
x2 = 0.0002492, x1 = 0.0001801	0.2196
x2 = 0.0002537, x1 = 0.001798	0.8169
x2 = 0.0002601, x1 = 0.0001801	0.2239
x2 = 0.0002641, x1 = 0.001798	0.8191
x2 = 0.0002692, x1 = 0.0001801	0.2266
x2 = 0.0002744, x1 = 0.001798	0.8212
x2 = 0.0002795, x1 = 0.0001801	0.2291
x2 = 0.0002848, x1 = 0.001798	0.8234
x2 = 0.0002918, x1 = 0.0001801	0.2316
x2 = 0.0003062, x1 = 0.0001801	0.234
x2 = 0.0003222, x1 = 0.0001801	0.2367
x2 = 0.0003394, x1 = 0.0001801	0.2394
x2 = 0.000366, x1 = 0.0001801	0.2432
x2 = 0.0003922, x1 = 0.0001801	0.2467
